The results in this text go back to ChEMBL document CHEMBL1159077, “Discovery and SAR of substituted 3-oxoisoindoline-4-carboxamides as potent inhibitors of poly(ADP-ribose) polymerase (PARP) for the treatment of cancer” (Bioorg Med Chem Lett, 2010).

Assay [1] deals with T1, Poly [ADP-ribose] polymerase 1 (Homo sapiens, UniProt P09874). In words: Inhibition of PARP1 by microplate scintillation counting.
The target in assay [2] is T1, Poly [ADP-ribose] polymerase 1. In words: Inhibition of PARP1 in human C41 cells. The class given is cell-based.

T1 sequence (P09874 whole entry): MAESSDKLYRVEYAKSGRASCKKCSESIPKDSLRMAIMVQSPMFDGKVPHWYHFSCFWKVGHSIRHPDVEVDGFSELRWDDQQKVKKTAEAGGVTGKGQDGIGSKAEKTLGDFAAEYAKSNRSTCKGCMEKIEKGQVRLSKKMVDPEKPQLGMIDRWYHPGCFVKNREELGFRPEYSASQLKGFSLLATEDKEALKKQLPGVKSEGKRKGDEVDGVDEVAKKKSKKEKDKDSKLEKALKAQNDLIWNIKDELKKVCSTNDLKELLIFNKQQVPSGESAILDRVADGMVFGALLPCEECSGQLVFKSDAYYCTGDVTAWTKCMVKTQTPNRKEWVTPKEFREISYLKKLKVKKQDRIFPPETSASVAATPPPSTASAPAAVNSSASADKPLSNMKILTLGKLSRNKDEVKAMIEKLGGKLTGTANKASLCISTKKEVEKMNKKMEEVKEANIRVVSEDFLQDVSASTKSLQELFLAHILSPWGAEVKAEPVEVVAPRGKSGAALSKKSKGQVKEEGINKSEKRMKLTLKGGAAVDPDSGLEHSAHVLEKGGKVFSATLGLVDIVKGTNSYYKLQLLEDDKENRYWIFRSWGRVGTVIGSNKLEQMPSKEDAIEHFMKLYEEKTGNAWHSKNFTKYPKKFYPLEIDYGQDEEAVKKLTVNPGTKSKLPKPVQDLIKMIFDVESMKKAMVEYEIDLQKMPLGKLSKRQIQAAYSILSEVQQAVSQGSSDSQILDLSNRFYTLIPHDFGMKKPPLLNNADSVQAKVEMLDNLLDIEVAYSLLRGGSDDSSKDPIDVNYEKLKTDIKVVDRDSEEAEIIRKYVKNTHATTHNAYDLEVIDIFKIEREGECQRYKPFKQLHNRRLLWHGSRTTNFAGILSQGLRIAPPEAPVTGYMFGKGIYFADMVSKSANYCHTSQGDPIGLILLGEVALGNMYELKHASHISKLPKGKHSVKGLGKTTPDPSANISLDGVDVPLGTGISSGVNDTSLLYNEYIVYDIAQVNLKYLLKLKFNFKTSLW

Take `NC(=O)c1cccc2c1C(=O)N(c1ccc(CN3CCCC3)cc1)C2`: the Ki (as a rule, the equilibrium dissociation constant of an inhibitor or competing ligand from its target) in assay [1] came out at 53 nM. The EC50 (as a rule, the concentration needed to bring the measured effect to its halfway point) in assay [2] was determined as 53 nM.
As to `NC(=O)c1cccc2c1C(=O)N(C1CCNCC1)C2`, in assay [1], the affinity, expressed as Ki, was 33 nM. The compound further displayed an EC50 in assay [2] of 51 nM.
In assay [1], `NC(=O)c1cccc2c1C(=O)N(c1cccc(C3CCNCC3)c1)C2` registered a Ki of 314 nM.
For the compound `CC(C)CN1Cc2cccc(C(N)=O)c2C1=O`, in assay [1], the Ki was 112 nM. The EC50 in assay [2] is more than 1000 nM.
For `NC(=O)c1cccc2c1C(=O)N(C1CCCNC1)C2` (stereo unspecified), the Ki in assay [1] turned out to be 140 nM.
For the compound `CN(C)c1ccc(N2Cc3cccc(C(N)=O)c3C2=O)cc1`, the Ki in assay [1] came to 70 nM. Moreover, in assay [2], the EC50 came to 372 nM.
`Cc1cccc(N2Cc3cccc(C(N)=O)c3C2=O)c1`: in assay [1], the affinity corresponds to a Ki of 261 nM.
The compound `NC(=O)c1cccc2c1C(=O)N(C1CCNC1)C2` (stereo unspecified) came in with a Ki in assay [1] of 59 nM. Further, in assay [2], it took 160 nM to reach a half-maximal effect (EC50).
In the same order, the values of `CN1CCN(c2ccc(N3Cc4cccc(C(N)=O)c4C3=O)cc2)CC1` are 48 nM and 22 nM.
On to `NC(=O)c1cccc2c1C(=O)N(CC1CCCN1)C2` (stereo unspecified), for which the Ki in assay [1] was 377 nM. In assay [2], this compound displayed an EC50 of 374 nM.
For the compound `NC(=O)c1cccc2c1C(=O)N(CC1CCNCC1)C2`, in assay [1], affinity was put at a Ki of 384 nM.
On the same count and under the same terms, as for `NC(=O)c1cccc2c1C(=O)N(c1cccc(CN3CCCC3)c1)C2`, the figure is 391 nM.
Still for that read-out and setting: as for `NC(=O)c1cccc2c1C(=O)N(Cc1cccnc1)C2`, the figure is more than 9500 nM.
Take `NC(=O)c1cccc2c1C(=O)N(c1ccc(C3CCNCC3)cc1)C2`: in assay [1], the Ki amounted to 32 nM. In assay [2], this compound registered an EC50 of 120 nM.
Taken in the same sequence, the figures for `NC(=O)c1cccc2c1C(=O)N(C1CCCCC1)C2` were 172 nM and more than 1000 nM.
As for `CN1Cc2cccc(C(N)=O)c2C1=O`, the Ki in assay [1] was 123 nM.
`NC(=O)c1cccc2c1C(=O)N(CC1CCCNC1)C2` (stereo unspecified) gave a Ki in assay [1] of 164 nM. The Ki values of the last two compounds are within 1.5-fold of each other.
